# Values quoted from earlier work, collected in PubChem BioAssay AID1259410 (Chemical Carcinogenesis Research Information System (CCRIS), 2018).
# Test system: rodent tumor promotion studies, tumor incidence
# Test: CCRIS tumor promotion studies
smiles,measurement,setting,value
Cc1cc(C(C)(C)C)c(O)c(C(C)(C)C)c1,outcome,"Carcinogen: 2-(ACETYLAMINO)FLUORINE, Doses [Carcinogen]: 200 PPM IN DIET FOR 8 WK, Doses [Promoter]: 300, 1000, 3000, 6000 PPM IN DIET FOR 22 WK AFTER INITIATION FOR 8 WK, Doses [Promoter]: 300, 1000, 3000, 6000 PPM IN DIET FOR 22 WK AFTER INITIATION FOR 8 WK, Route [Carcinogen]: ORAL, Route [Promoter]: ORAL, Species: RAT, Strain/Sex: F344/MALE","liver: neoplastic nodule, hepatocellular carcinoma"
same,outcome,"Carcinogen: 2-(ACETYLAMINO)FLUORINE, Doses [Carcinogen]: DIET, Doses [Promoter]: IN DIET, Route [Carcinogen]: ORAL, Route [Promoter]: ORAL, Species: RAT, Strain/Sex: MALE",liver
same,outcome,"Carcinogen: 3,2'-DIMETHYL-4-AMINOBIPHENYL, 13394-86-0, Doses [Carcinogen]: 50 MG/KG IN CORN OIL 1/WK FOR 10 WK, Doses [Promoter]: 0, 1 ADMINISTERED TO 4 WK OLD RATS IN DIET FOR 11 WK BEGINNING 1 WK PRIOR TO CARCINOGEN (STUDY DURATION: 55 WK), Route [Carcinogen]: SUBCUTANEOUS, Route [Promoter]: ORAL, Species: RAT, Strain/Sex: F344/MALE","bladder: carcinoma, papilloma"
same,outcome,"Carcinogen: 3-METHYLCHOLANTHRENE, 56-49-5, Doses [Carcinogen]: 10, 15, 25 UG/G ONCE, Doses [Carcinogen]: 10, 15, 25 UG/G ONCE, Doses [Promoter]: 0, 200 MG/KG 1/WK FOR 6 WK (STUDY DURATION: 20 WK), Route [Carcinogen]: INTRAPERITONEAL, Route [Promoter]: INTRAPERITONEAL, Species: MOUSE, Strain/Sex: BALB/CBYJ/FEMALE",lung: tumor
same,outcome,"Carcinogen: 3-METHYLCHOLANTHRENE, 56-49-5, Doses [Carcinogen]: 10 UG/G ONCE, Doses [Promoter]: 0, 200 MG/KG 1/WK FOR 6 WK (STUDY DURATION: 20 WK), Route [Carcinogen]: INTRAPERITONEAL, Route [Promoter]: INTRAPERITONEAL, Species: MOUSE, Strain/Sex: BALB/COLA/FEMALE",lung: tumor
same,outcome,"Carcinogen: METHYLNITROSOUREA, 684-93-5, Doses [Carcinogen]: 20 MG/KG 2/WK FOR 4 WK, Doses [Promoter]: 0, 1% IN DIET BEGINNING POST CARCINOGEN TREATMENT AND CONTINUING FOR 32 WK (STUDY DURATION: 36 WK), Route [Carcinogen]: INTRAPERITONEAL, Route [Promoter]: ORAL, Species: RAT, Strain/Sex: F344/MALE","urinary bladder: papilloma, carcinoma; thyroid: adenoma"
same,outcome,"Carcinogen: N,N-DIBUTYLNITROSAMINE, 924-16-3, Doses [Carcinogen]: 0.05% IN DRINKING WATER FOR 16 WK, Doses [Promoter]: 0, 0.7% IN DIET FOR 16 WK CONCOMITANT WITH CARCINOGEN TREATMENT (STUDY DURATION: 32 WK), Route [Carcinogen]: ORAL, Route [Promoter]: ORAL, Species: RAT, Strain/Sex: F344/MALE",liver: hepatocellular carcinoma
same,outcome,"Carcinogen: N-BUTYL-N-(4-HYDROXYBUTYL)NITROSAMINE, 3817-11-6, Doses [Carcinogen]: 0.05% IN DRINKING WATER FOR 4 WK, Doses [Promoter]: 0, 1% IN DIET FOR 32 WK (STUDY DURATION: 36 WK), Route [Carcinogen]: ORAL, Route [Promoter]: ORAL, Species: RAT, Strain/Sex: F344/MALE","urinary bladder: papilloma, carcinoma"
same,outcome,"Carcinogen: N-BUTYL-N-(4-HYDROXYBUTYL)NITROSAMINE, Doses [Carcinogen]: 0.05% IN DRINKING WATER FOR 4 WK, Doses [Promoter]: 1% IN DIET FOR 32 WK AFTER INITIATION, Route [Carcinogen]: ORAL, Route [Promoter]: ORAL, Species: RAT, Strain/Sex: F344/MALE",urinary bladder: carcinoma
same,outcome,"Carcinogen: N-METHYL-N-NITROSOUREA, 684-93-5, Doses [Carcinogen]: 20 MG/KG 2/WK FOR 4 WK, Doses [Promoter]: 0, 1% IN DIET FOR 32 WK (STUDY DURATION: 36 WK), Route [Carcinogen]: INTRAPERITONEAL, Route [Promoter]: ORAL, Species: RAT, Strain/Sex: F344/MALE","thyroid gland: adenoma; urinary bladder: papilloma, carcinoma"
same,outcome,"Carcinogen: URETHANE, 51-79-6, Doses [Carcinogen]: 1 MG/G BW ONCE, Doses [Promoter]: 0, 200 MG/G BW 1/WK FOR 6 WK BEGINNING POST CARCINOGEN TREATMENT (STUDY DURATION: 20 WK), Route [Carcinogen]: INJECTION, Route [Promoter]: INJECTION, Species: MOUSE, Strain/Sex: BALB/MALE,FEMALE",lung: tumor
same,outcome,"Carcinogen: URETHANE, 51-79-6, Doses [Carcinogen]: 1 MG/G BW ONCE, Doses [Promoter]: 0, 200 MG/G BW 1/WK FOR 6 WK BEGINNING POST CARCINOGEN TREATMENT (STUDY DURATION: 20 WK), Route [Carcinogen]: INJECTION, Route [Promoter]: INJECTION, Species: MOUSE, Strain/Sex: GRS/MALE,FEMALE",lung: tumor
same,outcome,"Carcinogen: URETHANE, 51-79-6, Doses [Carcinogen]: 1 MG/KG ONCE, Doses [Promoter]: 0, 200 MG/KG 1/WK FOR 6 WK (STUDY DURATION: 20 WK), Route [Carcinogen]: INTRAPERITONEAL, Route [Promoter]: INTRAPERITONEAL, Species: MOUSE, Strain/Sex: BALB/CBYJ/FEMALE",lung: tumor
same,outcome,"Carcinogen: URETHANE, Doses [Carcinogen]: 1000 MG/KG ONCE, Doses [Promoter]: 0.10, 0.25, 0.50% IN DIET FOR 8 WK BEGINNING 24 HR AFTER INITIATION, Doses [Promoter]: 0.10, 0.25, 0.50% IN DIET FOR 8 WK BEGINNING 24 HR AFTER INITIATION, Route [Carcinogen]: INTRAPERITONEAL, Route [Promoter]: ORAL, Species: MOUSE, Strain/Sex: STRAIN-A/MALE",lung: tumor (nos)
same,outcome,"Carcinogen: URETHANE, Doses [Carcinogen]: IP, Route [Carcinogen]: INTRAPERITONEAL, Route [Promoter]: INTRAPERITONEAL, Species: MOUSE, Strain/Sex: MALE",lung
CCC(C(=O)NC(N)=O)c1ccccc1 (configuration not stated),outcome,"Carcinogen: N-NITROSODIETHYLAMINE, 55-18-5, Doses [Carcinogen]: 75 MG IN STERILE SALINE ONCE, Doses [Promoter]: 0, 444 PPM IN DIET BEGINNING 2 WK POST CARCINOGEN DOSE AND CONTINUING FOR DURATION OF STUDY (STUDY DURATION: 78 WK), Route [Carcinogen]: INTRAPERITONEAL, Route [Promoter]: ORAL, Species: RAT, Strain/Sex: F344/MALE",liver: hepatocellular adenoma
Nc1nc(-c2ccccc2)c(-c2ccccc2)s1,outcome,"Carcinogen: N-ETHYL-N-HYDROXYETHYLNITROSAMINE, 13147-25-6, Doses [Carcinogen]: 1000 PPM IN DRINKING WATER FOR 2 WK, Doses [Promoter]: 0, 1.06% IN DIET FOR 14 WK BEGINNING POST CARCINOGEN TREATMENT (STUDY DURATION: 32 WK), Route [Carcinogen]: ORAL, Route [Promoter]: ORAL, Species: RAT, Strain/Sex: WISTAR/MALE",kidney: renal cell tumor
same,outcome,"Carcinogen: N-ETHYL-N-HYDROXYETHYLNITROSAMINE, 13147-25-6, Doses [Carcinogen]: 1000 PPM IN DRINKING WATER FOR 2 WK, Doses [Promoter]: 0, 1.06% IN DIET FOR 30 WK BEGINNING POST CARCINOGEN TREATMENT (STUDY DURATION: 32 WK), Route [Carcinogen]: ORAL, Route [Promoter]: ORAL, Species: RAT, Strain/Sex: WISTAR/MALE",kidney: renal cell tumor
C=CCS(=O)(=O)CC=C,outcome,"Carcinogen: Vinyl carbamate, 15805-73-9, Doses [Carcinogen]: 60 mg/kg once 2 hr after inhibitor (Study duration: 25 wk), Doses [Promoter]: 50 mg/kg once at beginning of experiment (Study duration: 25 wk), Route [Carcinogen]: Intraperitoneal, Route [Promoter]: Oral, Species: Mouse, Strain/Sex: F1 (Big Blue x A/J) (43/?)/47/?)","lung: solid tumors (61 (42%), 135 (86.5%), p<0.01)"
Cc1ccccc1O,outcome,"Carcinogen: 7,12-DIMETHYLBENZ(A)ANTHRACENE, Doses [Carcinogen]: DERMAL, Route [Carcinogen]: DERMAL, Route [Promoter]: DERMAL, Species: MOUSE, Strain/Sex: FEMALE",integumentary system (skin)
C[C@]12CC[C@@H]3c4ccc(O)cc4CC[C@H]3[C@@H]1CC[C@@H]2OC(=O)CCc1ccccc1 (tested in a mixture with another compound),outcome,"Carcinogen: N-NITROSOMORPHOLINE, Doses [Carcinogen]: IG, Route [Carcinogen]: GAVAGE, Route [Promoter]: INTRAMUSCULAR, Species: RAT, Strain/Sex: FEMALE",liver
COc1ccc(N)cc1N,outcome,"Carcinogen: N-BIS(2-HYDROXYPROPYL)NITROSAMINE, 53609-64-6, Doses [Carcinogen]: 210 MG/100 G, ONCE (STUDY DURATION: 20 WK), Doses [Promoter]: 0, 0.5% IN DIET FOR 19 WK (STUDY DURATION: 20 WK), Route [Carcinogen]: INTRAPERITONEAL, Route [Promoter]: ORAL, Species: RAT, Strain/Sex: WISTAR/MALE","thyroid gland: carcinoma, adenoma"
